Experimental findings from patent US11814367B2, “Inhibitors of glycogen synthase 1 (GYS1) and methods of use thereof” (Maze Therapeutics, Inc., priority 2021, dated 2023) are described below.

Assay [1] deals with hGYS1 enzyme (recombinant hGYS1/GN1 protein) (Homo sapiens (Human), UniProt P13807). As to the kind of experiment: GYS1 coupled enzyme assay (PK/LDH). Format: biochemical. To be noted: hGYS1/GN1 50 nM, UDP-Glucose 0.8 mM, G6P 1 mM; geometric mean of at least 2 runs.
For assay [2], the target named is hGYS2 enzyme (recombinant hGYS2/GN1 protein) (Homo sapiens (Human), UniProt P54840). Briefly: GYS2 coupled enzyme assay (PK/LDH). The assay is classed as biochemical. Particulars: geometric mean of at least 2 assay runs on separate days, read-out: Avg_IC50. The essentials: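 IC50 came from Hill fits of duplicate percent inhibition, based on control-normalized slopes of 340 nm NADH decline read each minute for 10 min. The reaction held recombinant hGYS2/GN1 (200 nM) with glycogen, UDP-glucose, G6P and PEP, plus PK/LDH coupling at pH 7.5 and 2.5% DMSO.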

The subject of assay [3] is hGYS1 enzyme / glycogen synthesis in HeLa cells. As to the kind of experiment: GYS1 cell based assay (glycogen synthesis, Glucose-glo). Details: species or system human. Particulars: Homo sapiens, HeLa, 24 h, 24 h incubation, 20 mM glucose, geometric mean of at least 2 runs. The essentials: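 HeLa cells starved 24 h in medium containing only 1× Glutamax were plated onto compound in medium with 20 mM glucose (1% DMSO final) for 24 h, 37 °C, 5% CO2. Acid lysates were Tris-quenched, glucoamylase-digested (pH 5.3, 1 h, 37 °C) and read by Glucose-glo luminescence. IC50 came from Hill fits, as geometric mean of ≥2 runs.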

Each structure is given as a SMILES string. pIC50: −log10 of the molar value. Some results are limits rather than exact numbers.

Chain of hGYS2 enzyme (recombinant hGYS2/GN1 protein) (P54840 whole entry): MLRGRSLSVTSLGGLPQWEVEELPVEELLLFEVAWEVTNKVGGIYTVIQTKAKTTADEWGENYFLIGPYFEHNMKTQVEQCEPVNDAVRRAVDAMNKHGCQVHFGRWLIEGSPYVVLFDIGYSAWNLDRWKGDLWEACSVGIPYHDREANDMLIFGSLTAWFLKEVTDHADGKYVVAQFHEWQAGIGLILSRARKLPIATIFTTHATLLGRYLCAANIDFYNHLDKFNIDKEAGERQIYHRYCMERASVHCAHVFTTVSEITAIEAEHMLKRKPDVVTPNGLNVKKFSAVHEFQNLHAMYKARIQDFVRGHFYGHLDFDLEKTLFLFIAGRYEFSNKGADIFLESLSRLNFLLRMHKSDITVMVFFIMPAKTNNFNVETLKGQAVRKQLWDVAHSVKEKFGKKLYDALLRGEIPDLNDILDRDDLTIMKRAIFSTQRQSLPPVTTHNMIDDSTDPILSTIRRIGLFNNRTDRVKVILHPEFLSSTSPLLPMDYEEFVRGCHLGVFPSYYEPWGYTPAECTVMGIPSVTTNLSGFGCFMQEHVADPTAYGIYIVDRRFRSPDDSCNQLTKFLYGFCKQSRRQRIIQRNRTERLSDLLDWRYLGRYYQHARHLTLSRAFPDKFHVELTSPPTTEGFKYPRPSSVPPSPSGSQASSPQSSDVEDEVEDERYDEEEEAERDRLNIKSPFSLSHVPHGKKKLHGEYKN
Chain of hGYS2 enzyme (recombinant hGYS2/GN1 protein) (P46976 whole entry partner): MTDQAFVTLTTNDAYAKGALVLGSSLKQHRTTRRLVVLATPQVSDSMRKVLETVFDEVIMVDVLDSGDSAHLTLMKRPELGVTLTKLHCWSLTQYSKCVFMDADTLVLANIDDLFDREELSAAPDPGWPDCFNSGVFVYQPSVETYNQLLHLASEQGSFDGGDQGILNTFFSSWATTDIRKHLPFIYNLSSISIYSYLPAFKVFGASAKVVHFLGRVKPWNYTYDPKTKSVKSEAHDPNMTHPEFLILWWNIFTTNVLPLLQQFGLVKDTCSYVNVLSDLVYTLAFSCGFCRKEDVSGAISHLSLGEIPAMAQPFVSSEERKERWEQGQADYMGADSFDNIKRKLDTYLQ
Chain of hGYS1 enzyme (recombinant hGYS1/GN1 protein) (P13807 whole entry): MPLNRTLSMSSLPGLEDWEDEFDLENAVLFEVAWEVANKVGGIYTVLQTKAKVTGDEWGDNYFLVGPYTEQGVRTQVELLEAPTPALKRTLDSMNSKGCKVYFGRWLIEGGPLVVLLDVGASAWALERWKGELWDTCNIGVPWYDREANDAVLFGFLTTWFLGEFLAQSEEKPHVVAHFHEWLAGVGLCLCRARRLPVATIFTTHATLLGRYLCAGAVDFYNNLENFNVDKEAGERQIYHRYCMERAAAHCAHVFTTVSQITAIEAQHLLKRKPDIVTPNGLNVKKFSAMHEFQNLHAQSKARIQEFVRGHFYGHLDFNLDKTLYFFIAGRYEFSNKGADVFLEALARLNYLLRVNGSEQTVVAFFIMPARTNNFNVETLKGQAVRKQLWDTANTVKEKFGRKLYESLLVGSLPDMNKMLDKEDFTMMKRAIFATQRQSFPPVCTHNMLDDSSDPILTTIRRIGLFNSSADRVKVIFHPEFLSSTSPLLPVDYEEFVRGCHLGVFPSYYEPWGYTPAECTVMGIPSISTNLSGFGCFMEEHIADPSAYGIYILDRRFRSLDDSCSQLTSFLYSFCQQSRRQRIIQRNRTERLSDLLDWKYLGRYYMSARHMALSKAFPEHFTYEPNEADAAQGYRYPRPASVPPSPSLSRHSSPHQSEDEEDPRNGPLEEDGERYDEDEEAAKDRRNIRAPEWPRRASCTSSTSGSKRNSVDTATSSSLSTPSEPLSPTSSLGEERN
Chain of hGYS1 enzyme (recombinant hGYS1/GN1 protein) (P46976 whole entry partner): as the sequence (P46976 whole entry partner) above

As for `CN1C(=O)C(CC(=O)N2C[C@H](F)C[C@H]2C(=O)N[C@@H](c2ccccc2)c2ccc(C3(C)CC3)c(F)c2)c2ccccc21` (stereo partly drawn) [Compound 577, (2S,4R)-4-fluoro-N-[(S)-[3-fluoro-4-(1-methylcyclopropyl)phenyl](phenyl)methyl]-1-[2-(1-methyl-2-oxo-2,3-dihydro-1H-indol-3-yl)acetyl]pyrrolidine-2-carboxamide], the pIC50 is 6.32 in assay [1], 4.39 in assay [2] and 5.40 in assay [3].
Consider `CC1(c2ccc([C@@H](NC(=O)[C@@H]3C[C@@H](F)CN3C(=O)CN3CCN(C(=O)OCC(F)(F)F)CC3=O)c3ccccc3)cc2F)CC1` [Compound 578, 2,2,2-trifluoroethyl 4-{2-[(2S,4R)-4-fluoro-2-{[(S)-[3-fluoro-4-(1-methylcyclopropyl)phenyl](phenyl)methyl]carbamoyl}pyrrolidin-1-yl]-2-oxoethyl}-3-oxopiperazine-1-carboxylate], for which the pIC50 in assay [1] was 6.21; in assay [2], 4.10; in assay [3], 5.18.
For the molecule `COCCN1CCN(C(=O)OCC(=O)N2C[C@H](F)C[C@H]2C(=O)N[C@@H](c2ccccc2)c2ccc(C3(C)CC3)c(F)c2)CC1` [Compound 579, 2-[(2S,4R)-4-fluoro-2-{[(S)-[3-fluoro-4-(1-methylcyclopropyl)phenyl](phenyl)methyl]carbamoyl}pyrrolidin-1-yl]-2-oxoethyl 4-(2-methoxyethyl) piperazine-1-carboxylate], the pIC50 was 7.23 in assay [1], under 4.00 in assay [2] and 5.74 in assay [3].
For the molecule `CC1(c2ccc([C@@H](NC(=O)[C@@H]3C[C@@H](F)CN3C(=O)CN3CCN(CC(F)(F)F)CC3=O)c3ccccc3)cc2F)CC1` [Compound 580, (2S,4R)-4-fluoro-N-[(S)-[3-fluoro-4-(1-methylcyclopropyl)phenyl](phenyl)methyl]-1-{2-[2-oxo-4-(2,2,2-trifluoroethyl)piperazin-1-yl]acetyl}pyrrolidine-2-carboxamide], the pIC50 is 6.60 in assay [1], under 4.00 in assay [2] and 5.37 in assay [3].
On to `CC1(c2ccc([C@@H](NC(=O)[C@@H]3C[C@@H](F)CN3C(=O)CC3C(=O)Nc4ccccc43)c3ccccc3)cc2F)CC1` (stereo partly drawn) [Compound 581, (2S,4R)-4-fluoro-N-[(S)-[3-fluoro-4-(1-methylcyclopropyl)phenyl](phenyl)methyl]-1-[2-(2-oxo-2,3-dihydro-1H-indol-3-yl)acetyl]pyrrolidine-2-carboxamide], for which the pIC50 in assay [1] is 6.57; in assay [2] it was under 4.00; in assay [3] it was 5.41.
With `CC1(c2ccc([C@@H](NC(=O)[C@@H]3C[C@@H](F)CN3C(=O)Cn3cnnc3)c3ccccc3)cc2F)CC1` [Compound 582, (2S,4R)-4-fluoro-N-[(S)-[3-fluoro-4-(1-methylcyclopropyl)phenyl](phenyl)methyl]-1-[2-(4H-1,2,4-triazol-4-yl)acetyl]pyrrolidine-2-carboxamide], the pIC50 in assay [1] was 6.50; in assay [2] it was under 4.00; in assay [3], 5.09.
As for `CN1CCN(C(=O)OCC(=O)N2C[C@H](F)C[C@H]2C(=O)N[C@@H](c2ccccc2)c2ccc(C3(C)CC3)c(F)c2)CC1` [Compound 583, 2-[(2S,4R)-4-fluoro-2-{[(S)-[3-fluoro-4-(1-methylcyclopropyl)phenyl](phenyl)methyl]carbamoyl}pyrrolidin-1-yl]-2-oxoethyl 4-methylpiperazine-1-carboxylate], the results for the pIC50 in assay [1], in assay [2] and in assay [3] were 6.98, under 4.00 and 5.79, respectively.
As to `CC1(c2ccc([C@@H](NC(=O)[C@@H]3C[C@@H](F)CN3C(=O)COC(=O)N3CCN(CC4CC4)CC3)c3ccccc3)cc2F)CC1` [Compound 584, 2-[(2S,4R)-4-fluoro-2-{[(S)-[3-fluoro-4-(1-methylcyclopropyl)phenyl](phenyl)methyl]carbamoyl}pyrrolidin-1-yl]-2-oxoethyl 4-(cyclopropylmethyl) piperazine-1-carboxylate], the pIC50 in assay [1] is 6.98; in assay [2] it was under 4.04; in assay [3], 5.39.
`CC1(c2ccc([C@@H](NC(=O)[C@@H]3C[C@@H](F)CN3C(=O)COC(=O)N3CCN(CC(F)(F)F)CC3)c3ccccc3)cc2F)CC1` [Compound 585, 2-[(2S,4R)-4-fluoro-2-{[(S)-[3-fluoro-4-(1-methylcyclopropyl)phenyl](phenyl)methyl]carbamoyl}pyrrolidin-1-yl]-2-oxoethyl 4-(2,2,2-trifluoroethyl) piperazine-1-carboxylate]: the pIC50 in assay [1] was 6.69; in assay [2], under 4.00; in assay [3] it was 5.49.
Consider `CC1(c2ccc([C@@H](NC(=O)[C@@H]3C[C@@H](F)CN3C(=O)Cc3n[nH]c4ccccc34)c3ccccc3)nc2F)CC1` [Compound 588, (2S,4R)-4-fluoro-N-[(S)-[6-fluoro-5-(1-methylcyclopropyl)pyridin-2-yl] (phenyl)methyl]-1-[2-(1H-indazol-3-yl)acetyl]pyrrolidine-2-carboxamide], for which the pIC50 is 7.44 in assay [1], under 4.00 in assay [2] and 6.32 in assay [3].
The matching figures for `CC1(c2ccc([C@@H](NC(=O)[C@@H]3C[C@@H](F)CN3C(=O)CNC(=O)N3CCOCC3)c3ccccc3)nc2F)CC1` [Compound 589, N-{2-[(2S,4R)-4-fluoro-2-{[(S)-[6-fluoro-5-(1-methylcyclopropyl)pyridin-2-yl](phenyl)methyl]carbamoyl}pyrrolidin-1-yl]-2-oxoethyl} morpholine-4-carboxamide]: 7.00, under 4.00 and 5.85.
On to `CC1(c2ccc([C@H](NC(=O)[C@@H]3C[C@@H](F)CN3C(=O)Cc3n[nH]c4ccccc34)c3ccccc3)nc2F)CC1` [Compound 590, (2S,4R)-4-fluoro-N-[(R)-[6-fluoro-5-(1-methylcyclopropyl)pyridin-2-yl](phenyl)methyl]-1-[2-(1H-indazol-3-yl)acetyl]pyrrolidine-2-carboxamide], for which the pIC50 was 5.59 in assay [1], under 4.00 in assay [2] and 4.63 in assay [3].
As to `Cn1c(CC(=O)N2C[C@H](F)C[C@H]2C(=O)N[C@@H](c2ccccc2)c2ccc(C3(C)CC3)c(F)n2)cc2ccccc21` [Compound 591, (2S,4R)-4-fluoro-N-[(S)-[6-fluoro-5-(1-methylcyclopropyl)pyridin-2-yl](phenyl)methyl]-1-[2-(1-methyl-1H-indol-2-yl)acetyl]pyrrolidine-2-carboxamide], the pIC50 in assay [1] was 7.49; in assay [2] it was under 4.00; in assay [3], 6.51.
The corresponding values for `Cn1cc(CC(=O)N2C[C@H](F)C[C@H]2C(=O)N[C@@H](c2ccccc2)c2ccc(C3(C)CC3)c(F)n2)c2ccccc21` [Compound 592, (2S,4R)-4-fluoro-N-[(S)-[6-fluoro-5-(1-methylcyclopropyl)pyridin-2-yl](phenyl)methyl]-1-[2-(1-methyl-1H-indol-3-yl)acetyl]pyrrolidine-2-carboxamide] are 8.00, under 4.00 and 6.48.
